Our source for the Cmax values is patent publication US6403791B1, “Heterocyclic compounds and their therapeutic use” (Darwin Discovery, Ltd., priority 2000, dated 2002).

The series can be described thus: Oral pharmacokinetics (Cmax) in guinea pigs. Conditions: guinea pig, in vivo, dosed orally at 3 mg/kg to guinea pigs.

The structures appear in SMILES notation.

By Cmax is commonly meant the peak of the concentration-time curve. For the compound `CCc1nc2c(OC(F)F)ccc(C(=O)Nc3c(C)noc3C)c2o1` [Example 1, 4-Difluoromethoxy-2-ethylbenzooxazole-7-carboxylic acid (3,5-dimethylisoxazole-4-yl)-amide], the peak concentration (Cmax) amounted to 4370 ng/mL.
